Experimental data taken from US20040132793A1, “Pyrazole derivatives” (Pfizer Inc., priority 2002, published 2004).

Assays:
[1] = Metabolism in human hepatocytes; format: in vitro ADME; details: cryopreserved human hepatocytes 1 million cells/ml; substrate 3 μM; 37° C., 3 hours
Description: B. Metabolism in Human Hepatocytes.
The metabolic vulnerability of the compounds of the invention in human hepatocytes may be assayed as follows.
Cryopreserved human hepatocytes are obtained from In vitro Technologies, Inc. The hepatocytes are thawed and suspended at 1 million cells/ml in 50% Krebs-Heinsleit buffer: 50% Williams E media containing 10% foetal bovine serum. The substrate concentration is 3 μM and incubations are carried out at 37° C. for 3 hours. Samples are taken at time points throughout this period and analysed using hplc-ms-ms assay.

Metabolism in Supermix = format: in vitro ADME; details: human, Supermix (Gentest), pH 7.4; Supermix 0.05 μM cytochrome P450; substrate 1 μM; 37° C., 1 hour; read-out: t 1/2 (Supermix)
Description: (§1) A. Metabolism in Human Liver Microsomes and Supermix™ The metabolic vulnerability of the compounds of the invention in microsomes and Supermix™ may be assayed as follows. The microsomal fraction is isolated from several human livers and the P450 content determined. Supermix™ is obtained from Gentest. Human microsomes (0.5 μM cytochrome P450) and Supermix™ (0.05 μM cytochrome P450) are added to an incubation media containing 50 mM phosphate buffer (pH7.4), 5 mM MgCl2, 1 mM NADP and an NADPH generating system consisting of isocitrate and isocitrate dehydrogenase. The substrate concentration is 1 μM and incubations are carried out at 37° C. for 1 hour. Samples are taken at time points throughout this period and analysed using hplc-ms-ms assay.

[2] = biological target: T1, purified recombinant HIV-1 reverse transcriptase (Human immunodeficiency virus type 1 group M subtype B, UniProt P04585); assay: Inhibition of HIV-1 reverse transcriptase enzyme; format: biochemical
T1 construct: purified recombinant HIV-1 reverse transcriptase (RT, EC, 2.7.7.49); made in house; host or cells: Escherichia coli
From the text: The activity of the compounds of the invention as reverse transcriptase inhibitors may be measured using the following assay.
Inhibition of HIV-1 Reverse Transcriptase Enzyme
Using purified recombinant HIV-1 reverse transcriptase (RT, EC, 2.7.7.49) obtained by expression in Escherichia Coli, a 96-well plate assay system is established for assaying a large number of samples using either the Poly(rA)-oligo(dT) Reverse Transcriptase [3H]-SPA enzyme assay system (Amersham NK9020) or the [3H]-flashplate enzyme assay system (NEN-SMP 103) and following the manufacturer's recommendations. The compounds are dissolved in 100% DMSO and diluted with the appropriate buffer to a 5% final DMSO concentration. The inhibitory activity is expressed in percent inhibition relative to DMSO control.

[3] = Metabolism in human liver microsomes; format: in vitro ADME; details: pH 7.4, human microsomes 0.5 μM cytochrome P450, substrate 1 μM, 37° C., 1 hour, read-out: t 1/2 (human microsomal)
Description: as §1

## Cc1c(Oc2cc(C#N)cc(C#N)c2)c(C2CC2)nn1CCO [Example 1, 5-{[3-Cyclopropyl-1-(2-hydroxyethyl)-5-methyl-1H-pyrazol-4-yl]oxy}isophthalonitrile]
[1]
  unbound hepatocyte clearance: < 9 mL/min/kg
Metabolism in Supermix
  half-life at 1 μM: > 2 h
[2]
  IC50: 295 nM
[3]
  half-life at 1 μM: > 2 h
